# Source: patent US11117905B2, “Bisaryl heterocycles as NRF2 activators” (GLAXOSMITHKLINE INTELLECTUAL PROPERTY DEVELOPMENT LIMITED, priority 2016, dated 2021)
# Counter-ions that a name gives are not always drawn.
# Assays:
# [1] = system: NQO1 specific enzyme activity in BEAS-2B cells (marker for NRF2 activation); assay: BEAS-2B NQO1 MTT Assay; type: cell-based; conditions: Homo sapiens, BEAS-2B, 48 h, NQO1 specific activity induction, 48 hours with compound
# Summary of the method: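 BEAS-2B cells were plated at 250,000 cells/mL and treated after overnight culture with compound for 48 h at 37° C, 5% CO2. NQO1 activity in crude lysates was read kinetically as MTT reduction at 570 nm over 30 min. pEC50 comes from ΔOD/min versus log concentration with a 3-parameter fit.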
# [2] = system: rats on a choline-deficient L-amino acid-defined diet; conditions: cited from earlier work
# [3] = system: COPD macrophages and alveolar macrophages from cigarette smoke-exposed mice; conditions: cited from earlier work
# [4] = system: NRF2 wild-type and KO mice; conditions: after administration, NRF2 wild-type vs KO mice; cited from earlier work
# [5] = system: rats in a cerebral ischemia-reperfusion model; conditions: cited from earlier work
Compound,EC50 [1],also measured
"CC[C@@H]1CN(Cc2cc([C@@H](CCc3cn(CC)nn3)C(C)(C)C(=O)O)sc2C)S(=O)(=O)c2cccnc2O1 [Example 59, (S)-3-(4-(((R)-4-Ethyl-1,1-dioxido-3,4-dihydro-2H-pyrido[2,3-b][1,4,5]oxathiazepin-2-yl)methyl)-5-methylthiophen-2-yl)-5-(1-ethyl-1H-1,2,3-triazol-4-yl)-2,2-dimethylpentanoic Acid]",0.001 to 0.01 µM,–
"CC[C@@H]1CN(Cc2cc([C@@H](c3ccc4c(nnn4CC)c3C)C(C)(C)C(=O)O)sc2C)Cc2ncccc2O1 [Example 60, (S)-3-(4-(((R)-2-Ethyl-2,3-dihydropyrido[2,3-f][1,4]oxazepin-4(5H)-yl)methyl)-5-methylthiophen-2-yl)-3-(1-ethyl-4-methyl-1H-benzo[d][1,2,3]triazol-5-yl)-2,2-dimethylpropanoic Acid]",0.001 to 0.01 µM,–
"CCn1cc(CC[C@@H](c2cc(CN3C[C@@H](C)Cc4ncccc4S3(=O)=O)c(C)s2)C(C)(C)C(=O)O)nn1 [Example 61, (R)-5-(1-Ethyl-1H-1,2,3-triazol-4-yl)-2,2-dimethyl-3-(5-methyl-4-(((S)-4-methyl-1,1-dioxido-4,5-dihydropyrido[2,3-f][1,2]thiazepin-2(3H)-yl)methyl)thiophen-2-yl)pentanoic Acid]",0.001 to 0.01 µM,–
"CCn1cc(CC[C@H](c2cc(CN3C[C@@H](C)Cc4ncccc4S3(=O)=O)c(C)s2)C(C)(C)C(=O)O)nn1 [Example 62, (S)-5-(1-Ethyl-1H-1,2,3-triazol-4-yl)-2,2-dimethyl-3-(5-methyl-4-(((S)-4-methyl-1,1-dioxido-4,5-dihydropyrido[2,3-f][1,2]thiazepin-2(3H)-yl)methyl)thiophen-2-yl)pentanoic Acid]",0.001 to 0.01 µM,–
"CC[C@@H]1CN(Cc2cc([C@@H](CCc3cn(CC)nn3)C(C)(C)C(=O)O)sc2C)S(=O)(=O)c2ccccc2O1 [Example 63, (S)-3-(4-(((R)-4-Ethyl-1,1-dioxido-3,4-dihydro-2H-benzo[b][1,4,5]oxathiazepin-2-yl)methyl)-5-methylthiophen-2-yl)-5-(1-ethyl-1H-1,2,3-triazol-4-yl)-2,2-dimethylpentanoic Acid]",0.001 to 0.01 µM,–
"CC[C@@H]1CN(Cc2cc([C@H](CCc3cn(CC)nn3)C(C)(C)C(=O)O)sc2C)S(=O)(=O)c2ccccc2O1 [Example 64, (R)-3-(4-(((R)-4-Ethyl-1,1-dioxido-3,4-dihydro-2H-benzo[b][1,4,5]oxathiazepin-2-yl)methyl)-5-methylthiophen-2-yl)-5-(1-ethyl-1H-1,2,3-triazol-4-yl)-2,2-dimethylpentanoic Acid]",< 0.001 µM,–
"CC[C@@H]1CN(Cc2cc([C@@H](c3ccc4c(nnn4CC)c3C)C(C)(C)C(=O)Nc3nnn[nH]3)sc2C)S(=O)(=O)c2ccccc2O1 [Example 65, (S)-3-(4-(((R)-4-Ethyl-1,1-dioxido-3,4-dihydro-2H-benzo[b][1,4,5]oxathiazepin-2-yl)methyl)-5-methylthiophen-2-yl)-3-(1-ethyl-4-methyl-1H-benzo[d][1,2,3]triazol-5-yl)-2,2-dimethyl-N-(1H-tetrazol-5-yl)propanamide, 0.10Formic Acid Salt]",0.01 to 0.1 µM,–
O=C(NCc1ccccn1)Nc1nnc(-c2ccco2)o1 [NK-252],–,"progression of histologic abnormalities, especially hepatic fibrosis [2]: significantly attenuated progression"
C[S+]([O-])CCCCN=C=S (stereo not shown) [Sulforaphane],–,"expression of Macrophage Receptor with Collagenous structure (MARCO) ([3]; COPD macrophages and alveolar macrophages from cigarette smoke-exposed mice): increases the expression of Macrophage Receptor with Collagenous structure (MARCO); bacterial phagocytosis (Pseudomonas aeruginosa, non-typable Haemophilus influenzae) and bacterial clearance ([3]; ex vivo and in vivo): improving in these cells bacterial phagocytosis"
Cc1c(-c2cnccn2)ssc1=S [oltipraz],–,"progression of histologic abnormalities, especially hepatic fibrosis [2]: significantly attenuated progression"
"CC(C)(C)c1cc(O)ccc1O [tBHQ, tert-butylhydroquinone]",–,cortical glutathione levels [4]: increased in NRF2 wild-type but not KO mice; cortical damage [5]: reduced cortical damage
